Assay results published in patent US20170143712A1, “Methods of Treating Cancers, Immune and Autoimmune Diseases, and Inflammatory Diseases Based on BTK Occupancy and BTK Resynthesis Rate” (Acerta Pharma B.V., priority 2014, published 2017).
Entries after “also recorded” stand apart in the source; their conditions may differ.

Experiments:
[1] = Plasma pharmacokinetics in healthy volunteers; format: in vivo, human; details: 15 mg QD Day 1 vs Day 7; 15 mg and 25 mg studies
Description: Forty, healthy adult, non-tobacco using men and women were enrolled in the study. A 15 mg Formula (II) dose (1×15 mg capsule) was administered once daily (QD) to each subject for 7 consecutive days (Days 1 to 7) with a washout period (6 days). PD blood samples were collected from each subject before dosing on Day 1, throughout the study, and up to 144 hours after dosing on Day 7 to characterize Formula (II) PD effects. PK sampling for Formula (II) was also collected before dosing on Day 1, throughout the study, and for 24 hours after dosing on Day 7. Additionally, potential Formula (II) safety issues were monitored through physical examination, vital sign measurements, 12 lead electrocardiograms (ECGs), AEs and clinical laboratory tests.
The mean measured plasma concentration of Formula (II) versus time data (PK data) and mean occupancy of BTK by Formula (II) (PD data) were fitted with biophase compartment PK and PD models, respectively to enable prediction of PK and PD for different doses, dose regimens and dose durations. The biophase compartment PK model used to fit Formula (II) concentration versus time data is depicted in FIG. 1(A). The model is a naïve, mean data, two-compartment PK model with a delay d(1,3) for oral absorption. Fitting (optimization) was accomplished via weighed least squares. […]

psoriasis = assay: Clinical observation of psoriasis in CLL/SLL study subjects; format: in vivo, human
Excerpt: Clinical studies have shown that targeting the BCR signaling pathway by inhibiting BTK produces significant clinical benefit in patients with various types of leukemias and lymphomas. Formula (II) achieves significant oral bioavailability and potency, and has favorable preclinical characteristics, as described above. The purpose of this study is to evaluate the safety and efficacy of the second generation BTK inhibitor of Formula (II) in treating subjects with chronic lymphocytic leukemia (CLL) and small lymphocytic lymphoma (SLL). The primary objectives of the clinical study are as follows: […] The secondary objective of the clinical study is to evaluate tumor responses in patients treated with Formula (II). In addition, effects of Formula (II) on other patient characteristics, such as dermatoses, were evaluated for particular patients enrolled in the study. This study is a multicenter, open-label, nonrandomized, sequential group, dose escalation study. The following dose cohorts are evaluated: The study scheme is a sequential cohort escalation. Each cohort consists of six subjects. The sample size of the study is 24 to 36 subjects, depending on dose escalation into subsequent cohorts. Cohort 1 (N=6) consists of Formula (II), 100 mg QD for 28 days. Cohort 2 (N=6) consists of Formula (II), 175 mg QD for 28 days. Cohort 3 (N=6) consists of Formula (II), 250 mg QD for 28 days. Cohort 4 (N=6) consists of Formula (II), 350 mg QD for 28 days. Cohort 5 (N=6) consists of Formula (II), 450 mg QD for 28 days. Cohort 6 (N=6) consists of Formula (II), at a dose to be determined QD for 28 days. The dose level for Cohort 6 will be determined based on the safety and efficacy of Cohorts 1 to 5, and will not exceed 900 mg/day. […] Treatment with oral Formula (II) may be continued for greater than 28 days until disease progression or an unacceptable drug-related toxicity occurs. The dosage form and strength of Formula (II) used in the clinical study is a hard gelatin capsules prepared using standard pharmaceutical grade excipients (microcrystalline cellulose) and containing 25 mg of Formula (II) each. The color of the capsules is Swedish orange. The route of administration is oral (per os, or PO). […] They were treated over time with several systemic therapies including etanercept, adalimumab, and a 2010 clinical study of an experimental agent. They initially responded to etanerceptbut continued to have flares, and was under the care of a dermatologist prior to enrolling in the clinical study. Their treatment history included topical medications, and recently included Taclonex (calcipotriene/betamethasone diproprionate), without much improvement in skin lesions.

Structure (SMILES): CC#CC(=O)N1CCC[C@H]1c1nc(-c2ccc(C(=O)Nc3ccccn3)cc2)c2c(N)nccn12 [Formula (II), (S)-4-(8-amino-3-(1-(but-2-ynoyl)pyrrolidin-2-yl)imidazo[1,5-a]pyrazin-1-yl)-N-(pyridin-2-yl)benzamide]
- accumulation or change in PK after repeat dosing [1]: no apparent accumulation; also recorded: little to no accumulation or change in PK after repeat dosing
- Psoriasis Area and Severity Index achieved (PASI90) (psoriasis; Subject 1, CLL patient with severe psoriasis, 10 month visit): 90%
- serum IL-6, MIP-1α, MCP-1β, TNFA, TARC, CXCLS, CD40L, TRAIL, EGF, CXCL1 relative to baseline (psoriasis; Subject 1, Day 28 of treatment): decreased
- psoriatic skin disease (psoriasis; Subject 1, by Cycle 10 (10 months on treatment)): their skin was clear
- moderate-to-severe plaque psoriasis (psoriasis; Subject 2, after initiation of treatment): cleared quickly
